IC50, Activity and zone of inhibition data for four molecules are collected here from ChEMBL document CHEMBL1141842, “Amathaspiramides A-F, novel brominated alkaloids from the marine bryozoan amathia wilsoni” (J Nat Prod, 1999).

As a reminder, the IC50 is the concentration needed to halve the response being measured.

Structures are written as SMILES. The source made the active and inactive calls. The calls are words filed in the database; no cut-off is given here.

The subject of test [1] is P388. The experiment in a line: Cytotoxicity against mouse P388 cells. The format is functional, cell-based.
The test system of test [2] is Poliovirus 1. The experiment in a line: Antiviral activity against Human poliovirus 1 at 40 ug/well. The format is functional, organism-based.
For test [3], the system named is Bacillus subtilis. The experiment in a line: Antibacterial activity against Bacillus subtilis at 60 ug/disk. The format is functional. To be noted: for zone of inhibition at 60 µg/disc: read-out: IZ.
Test [4] relates to Trichophyton mentagrophytes. Nature of the test: Antifungal activity against Trichophyton mentagrophytes at 60 ug/disk. The test is classed as functional. Particulars: for zone of inhibition at 60 µg/disc: read-out: IZ.

As for `COc1cc([C@H]2[C@@H](O)N(C)C(=O)[C@]23CCCN3)c(Br)cc1Br` [AMATHASPIRAMIDE C], the IC50 in test [1] was greater than 12.5 µg/mL. Moreover, the outcome in test [2], in test [3] and in test [4] was inactive.
For `COc1cc([C@H]2[C@@H](O)N(C)C(=O)[C@]23CCC=N3)c(Br)cc1Br` [AMATHASPIRAMIDE E], the IC50 in test [1] is greater than 12.5 µg/mL. In addition, the result in test [2] was Active. The zone of inhibition at 60 µg/disc in test [3] and in test [4] was 1 mm each time.
Take `COc1cc([C@H]2[C@@H](O)N(C)C(=O)[C@]23CCC(=O)N3C)c(Br)cc1Br` [AMATHASPIRAMIDE B]: in test [1], the IC50 is greater than 12.5 µg/mL. In addition, the result in test [2], in test [3] and in test [4] was inactive.
`COc1cc([C@H]2[C@@H](O)N(C)C(=O)[C@]23CCCN3C)c(Br)cc1Br` [AMATHASPIRAMIDE A]: in test [1], the IC50 is greater than 12.5 µg/mL. Moreover, the zone of inhibition at 60 µg/disc in test [3] and in test [4] was 1 mm in each case.
